Laboratory results as given in patent US20240415807A1, “AGENT FOR PREVENTING OR AMELIORATING PRURITUS” (KAO CORPORATION, priority 2021, published 2024).

Columns and labels:
[1] = molecular target: T1, C3a receptor (Homo sapiens, UniProt Q16581); assay: Ca2+-flux assay of C3a receptor antagonism in transfected HEK293 cells; type: cell-based; details: antagonist 10 nM, mouse TLQP-21 1 μM, 15 minutes preincubation, HEK293 with C3a receptor and GNA16 vectors, vs control; FIG. 6
T1 sequence (Q16581 1-482): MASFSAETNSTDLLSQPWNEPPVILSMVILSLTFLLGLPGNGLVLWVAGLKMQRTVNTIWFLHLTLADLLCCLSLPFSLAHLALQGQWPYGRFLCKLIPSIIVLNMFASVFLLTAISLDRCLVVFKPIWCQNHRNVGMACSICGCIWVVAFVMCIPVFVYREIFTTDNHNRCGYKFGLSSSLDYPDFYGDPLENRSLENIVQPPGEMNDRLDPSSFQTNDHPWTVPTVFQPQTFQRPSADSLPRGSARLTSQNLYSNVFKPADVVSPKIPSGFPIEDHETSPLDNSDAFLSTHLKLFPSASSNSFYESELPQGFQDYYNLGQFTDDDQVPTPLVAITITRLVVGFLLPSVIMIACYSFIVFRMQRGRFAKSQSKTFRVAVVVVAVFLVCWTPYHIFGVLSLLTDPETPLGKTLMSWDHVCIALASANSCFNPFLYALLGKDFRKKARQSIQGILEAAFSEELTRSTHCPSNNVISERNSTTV
Method: In the following evaluation, Compound 1 and Compound 2 were dissolved in DMSO and diluted with HBSS as appropriate.
Human Embryonic Kidney cells 293 (HEK293) were used, transfected with the expression vectors necessary for evaluation according to the following.
A transfection solution was prepared by sequentially adding C3a receptor expression vector, GNA16 expression vector, and PEI-MAX (PolyScience) solution to serum-free DMEM medium, mixing well, and then allowing it to stand at room temperature for 20 minutes. […]
The cells for evaluating C3a receptor response described above were seeded in a 96-well Black Polystyrene Microplate (Thermo fisher scientific) precoated with Poly-L-Ornithine Solution (FUJIFILM Wako Pure Chemical). […] After 15 minutes, a mouse TLQP-21 solution was added for C3a receptor stimulation, and the Ca^2+ influx associated with the stimulation was measured over time as intracellular fluorescence intensity (Ex: 494 nm, Em: 525 nm). The value obtained by subtracting the measured value when HBSS was added instead of mouse TLQP-21 solution (blank) was used as the measured value. The C3a receptor antagonist solution and mouse TLQP-21 solution were added after adjusting their concentrations by appropriately diluting them so that their final concentrations when measuring fluorescence intensity were 10 nM and 1 μM, respectively. […]

[2] = tested on: AD model mice (NC/Nga, mite allergen-induced); assay: Amelioration of pruritus in AD model mice (scratching behavior, MicroAct); type: in vivo, mouse; details: 200 μL subcutaneous, 0.5 mg/mL Compound 1 or 0.05 mg/mL Compound 2, three times a week; measured 3 hours; vs solvent alone; FIG. 7
Method: Seven-week-old female NC/Nga mice were used. Preparation of AD model mice: The back of the neck was shaved, and 100 mg of an ointment containing mite allergen: Biostir AD (Biostir Inc.) was applied to the back of the neck and auricular region under isoflurane anesthesia for initial sensitization. Four days after the first application of the ointment containing mite allergen, 150 μL of 4% (w/v) SDS solution and 100 mg of ointment containing mite allergen were applied to the back of the neck and auricular region under isoflurane anesthesia. Thereafter, the same procedure was performed four times at a frequency of once every 3 to 4 days to induce AD-like dermatitis.
Compound 1 or Compound 2, whose C3a receptor antagonism was confirmed in Example 4 above, was used as a C3a receptor antagonist. Compound 1 or Compound 2 was dissolved in saline containing 20% polyethylene glycol 400, of which 200 μL was administered subcutaneously to the back of the neck. The control group was administered with the same amount of only the above solvent. The concentration of the C3a receptor antagonist solution was set at 0.5 mg/mL for Compound 1 and 0.05 mg/mL for Compound 2. […]
Four days after the last application of the ointment containing mite allergen, the scratching behavior was measured for 3 hours after the last administration of the sample. […]

[3] = tested on: AEW model mice (C57BL/6J); assay: Amelioration of pruritus in AEW model mice (scratching behavior, MicroAct); type: in vivo, mouse; details: 200 μL subcutaneous, 0.5 mg/mL Compound 1 or 0.05 mg/mL Compound 2, once daily for 8 days; measured 3 hours; vs solvent alone; FIG. 8
Description: The animals used were male C57BL/6J mice.
Preparation of AEW model: The back of the neck was shaved, and absorbent cotton soaked with a 1:1 (v/v) mixture of acetone and diethyl ether was applied and allowed to stand for 15 seconds. Immediately thereafter, absorbent cotton soaked with water was applied for 30 seconds. This treatment was repeated twice/day (morning and evening) for 7 days.
Compound 1 or Compound 2, whose C3a receptor antagonism was confirmed in Example 4 above, was used as a C3a receptor antagonist. Compound 1 or Compound 2 was dissolved in saline containing 20% polyethylene glycol 400, of which 200 μL was administered subcutaneously to the back of the neck. The control group was administered with the same amount of only the above solvent. The concentration of the C3a receptor antagonist solution was set at 0.5 mg/mL for Compound 1 and 0.05 mg/mL for Compound 2. Sample administration started after the first AEW treatment and was performed at a frequency of once daily for 8 days.
Sixteen hours after the last AEW treatment, the scratching behavior was measured for 3 hours after the last administration of the sample. MicroAct (Neuroscience) was used to measure the scratching behavior.

SMILES	Fluorescence intensity due to C3a receptor stimulation by TLQP-21 (integrated over 3 min) [1]	Scratching behavior in AD model mice [2]	Scratching behavior in AEW model mice [3]
N=C(N)NCCC[C@H](NC(=O)c1ccc(C(c2ccccc2)c2ccccc2)s1)C(=O)O [Compound 1, L-arginine, N2-[[5-(diphenylmethyl)-2-thienyl]carbonyl]]	greatly suppressed	significant decrease in scratching behavior	significant decrease in scratching behavior
Cc1cc(C(c2ccc(Cl)cc2)c2ccc(Cl)cc2)sc1C(=O)N[C@@H](CCCNC(=N)N)C(=O)O [Compound 2, L-arginine, N2-[[5-[bis(4-chlorophenyl)methyl]-3-methyl-2-thienyl]carbonyl]]	greatly suppressed	significant decrease in scratching behavior	significant decrease in scratching behavior
